Data published in patent publication US5348941A, “Stabilizers for fibroblast growth factors” (Merck & Co., Inc., priority 1992, dated 1994).

Assays:
aFGF = target: T1, aFGF (Homo sapiens, UniProt P05230); assay: Copper-catalyzed oxidation of aFGF thiol groups; type: biochemical; settings: for Cu Oxidation (% SH Lost in 10 Mins): ligand 3X by weight, sodium sulfate 120 mM, tetrapolyphosphate 10 mM
T1 construct: The recombinant derived, 140 amino add form is the preferred form of aFGF; N-terminal methionine (MetHaFGF); made in house; host or cells: microbial cells (preferred embodiment)
Description: Copper-catalyzed oxidation of aFGF is carried out in the following manner. Acidic FGF (about 80 μg/ml) is incubated in a 20 mM Tris, 0.15M potassium chloride, pH 8 solution containing about 20 μM cuptic chloride for varying periods of time at room temperature. The reaction was terminated by the addition of 100 mM EDTA in the same buffer. A solution of about 0.7 ml of 0.25M Tris (about pH 8) containing about 2 mM EDTA and about 7 M GuHC1 is then added followed by about 35 μl of 4 mg/ml of DTNB (Sigma). Samples were incubated for 30 minutes, filtered through a 0.22 micron filter and the optical density measured at about 412 nm to determine sulfhydryl content, Riddles et al., Meth. Enzymol. 9:49-60 (1983). Relative standard deviation of the obtained values during time course experiments is 12%.
Acidic FGF contains three free cysteine residues at positions […], 83 and 117 in the polypeptide chain. […] It has also been shown that the copper catalyzed oxidative formation of a disulfide bond in the wild-type aFGF inactivates the protein in an in vitro mitogenic assay, Ortega et al., J. Biol. Chem. 266:5842-5846 (1991). Therefore, it was of interest to determine the extent to which heparin can stabilize aFGF against inactivation by oxidation. […] Samples contained 80 μg/ml aFGF with (a) 3X heparin by weight, (b) 0.1X heparin by weight and (c) buffer alone. As heparin was introduced and its concentration increased, the rate of copper-catalyzed oxidation decreased. For example, after 20 minutes, greater than 95% of the cysteine residues of aFGF are protected from oxidation with 3X heparin. FIG. 4B illustrates the fraction of remaining reactive thiol groups after a 10-minute incubation with cupric chloride as a function of heparin concentration.
Some aggregation of aFGF occurs under the conditions of these experiments presumably due to at least partial intermolecular disulfide formation. Thus, these measurements could simply be a measurement of the loss of solubility induced by copper association with aFGF. Several experiments, however, argue against this possibility. First, previous work has shown that at dilute protein concentration, copper does indeed catalyze oxidation of thiol groups of aFGF, Ortega et al., J. Biol. Chem. 266:5842-5846 (199 1 ). Second, as a control experiment, the copper-catalyzed oxidation of aFGF was carded out in a buffer containing 6 M GuHCl. Under these denaturing conditions, nearly 100% of the thiol groups in solution were lost after 10 minutes without visible aggregation. […] Regardless of the precise mechanism, copper addition is a distinct mechanism of inactivation compared to thermal stress.
Similar protection against oxidation experiments were carried out with other negatively charged compounds with an excess of ligand (3X by weight except for sodium sulfate at 120 mM and tetrapolyphosphate at 10 mM) added to aFGF before copper catalyzed oxidation. As shown in the second column of Table 2, all of these agents at least partially protect the cysteine residues of aFGF from oxidation.
^(b) Percentage of aFGF thiols remaining in solution after 10 min
incubation with cupric chloride. Experimental conditions are described in
FIG. 10. All samples contained ligand at 3× (by weight) except
sodium sulfate (120 mM) and tetrapolyphosphate (10 mM).

acidic FGF (aFGF) = acidic FGF (aFGF) (Homo sapiens, UniProt P05230); assay: biochemical; settings: for stabilization of aFGF against heat-induced aggregation: 0.5X and 10X ligand, FIGS. 6-8; for Approx. Molar Ratio (ligand to aFGF at 50% inhibition of aggregation): Table 1
Description: Stabilization of aFGF can be determined by several independent methods including turbidity measurements, spectroscopic techniques, maintenance of protein mass, mitogenic activity and copper catalyzed oxidation. Since acidic fibroblast growth factor is unstable at physiological temperatures (undergoing large structural changes, including aggregation, which results in a loss of mitogenic and wound healing activity), human aFGF stability can be monitored by evaluating the turbidity of the pharmaceutical composition by following the kinetics of temperature induced aggregation of unfolded protein.
The kinetics of protein aggregation (stabilization) are monitored by the degree of light scattering at about OD350 nm using a Perkin Elmer Lambda 6 UV-visible spectrophotometer equipped with a six-cuvette holder. Temperature is controlled by circulating a water/ethylene glycol solution through the cell holder. About 0.9 ml of a PBS solution (6 mM sodium phosphate, 120 mM NaCl, pH 7.2) was placed into a cuvette and incubated at the appropriate temperature within the spectrophotometer. Once equilibrated, 100 μl of a 1 mg/ml aFGF solution containing the appropriate amount of ligand (stabilizer) is added to the cuvette and mixed manually by inversion. The change in optical density at 350 nm over time is continuously monitored. A dead time of 30s was present due to the mixing of the six samples in each experiment.
To examine the interactions between aFGF and heparin, a spectrophotometric turbidity assay was developed. This technique monitors the structural stability of aFGF by following the kinetics of temperature induced aggregation of unfolded protein by measurement of the degree of light scattering (turbidity) at 350 nm. The kinetics of protein aggregation were monitored by the degree of light scattering at 350 nm using a Perkin Elmer Lambda 6 UV-visible spectrophotometer equipped with a six-cuvette holder. Temperature was controlled by circulating a water/ethylene glycol solution through the cell holder. A PBS solution, 0.9 ml, (6 mM phosphate, 120 mM NaCl pH 7.2) was placed into a cuvette and incubated at the appropriate temperature within the spectrophotometer. Once equilibrated, 100 μl of a 1 mg/ml aFGF solution containing the appropriate amount of ligand was added to the cuvette and mixed manually by inversion. The change in optical density at 350 nm over time was continuously monitored. A dead time of 30s was present due to the mixing of the six samples in each experiment.
Samples contained 100 μg/ml aFGF in a PBS buffer at pH 7.2 with the indicated ratio of heparin to aFGF (wt:wt).
Samples contained 100 μg/ml protein in a PBS buffer, pH 7.2 with (a) no heparin, (b) 1.5 μg/ml, (c) 3 μg/ml, (d) 5 μg/ml, (e) 10 μg/ml and (f) 50 μg/ml heparin. Only representative data points are shown for clarity. […] Using the initial linear portion of the slope of turbidity vs. time plots as a measure of the rate of aggregation, the effect of polyanion concentration can be quantitatively characterized. The Y-axis represents the maximum rate of turbidity formation (ΔOD350 nm/min) normalized to sample (a) containing no heparin. The curve is drawn through data points for clarity only. The IC50 is the concentration of ligand at which the rate of aggregation is 50% of the control sample.

[1] = 40° C., 100 μg/ml aFGF, PBS pH 7.2

acidic FGF (aFGF), sequence (P05230 16-155 limits assumed): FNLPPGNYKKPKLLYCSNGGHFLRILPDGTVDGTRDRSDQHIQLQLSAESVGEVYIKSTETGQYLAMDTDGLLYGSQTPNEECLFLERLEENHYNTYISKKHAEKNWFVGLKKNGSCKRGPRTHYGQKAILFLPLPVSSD
T1 sequence (P05230 16-155 limits assumed): as above

Cu Oxidation (% SH Lost in 10 Mins) (aFGF) [%]	Approx. Molar Ratio (ligand to aFGF at 50% inhibition of aggregation) (acidic FGF (aFGF); 40° C.)	IC50: concentration of ligand at which the rate of heat-induced aggregation of aFGF is 50% of the sample without ligand (acidic FGF (aFGF); [1]) [µg/mL]	cysteine residues of aFGF protected from oxidation (aFGF; 3X heparin, 20 minutes)	heparin concentration down to which no detectable aggregation of aFGF was observed (acidic FGF (aFGF); 40° C., 100 μg/ml aFGF (1:10 weight ratio of heparin to aFGF))	Compound	Cu Oxidation (% SH Lost in 10 Mins) (aFGF; listed as inositol hexaphosphate)	number of ligand molecules per aFGF (molar ratio) required for stabilization (acidic FGF (aFGF); 40° C.)	IC50 (acidic FGF (aFGF); 40° C., 100 μg/ml aFGF, PBS pH 7.2, read-out: IC50: concentration of ligand at which the rate of heat-induced aggregation of aFGF is 50% of the sample without ligand (converted)) [µM]	stabilization of aFGF against heat-induced aggregation (acidic FGF (aFGF); 40° C.)	stabilization against copper-catalyzed oxidation (aFGF; 10-minute incubation, 1/3 weight level of heparin)	aggregation of aFGF (acidic FGF (aFGF); 55° C., 25 minutes, 3-fold excess heparin by weight)
< 3	1.2	3			O=P(O)(O)OP(=O)(O)OP(=O)(O)OP(=O)(O)O [Tetrapolyphosphate]		only one or a few ligands per aFGF molecule				
7	0.06	3			dextran sulfate		substantially below one		dramatically stabilize aFGF from heat-induced aggregation		
< 3	0.03	2	greater than 95%	approximately 10 μg/ml	heparin [reference compound]		substantially below one			stabilization essentially complete at 1/3 weight levels of heparin	no aggregation observed after 25 minutes at 55 °C

Continued, compound first:

Compound	Cu Oxidation (% SH Lost in 10 Mins) (aFGF) [%]	Approx. Molar Ratio (ligand to aFGF at 50% inhibition of aggregation) (acidic FGF (aFGF); 40° C.)	IC50: concentration of ligand at which the rate of heat-induced aggregation of aFGF is 50% of the sample without ligand (acidic FGF (aFGF); [1]) [µg/mL]	cysteine residues of aFGF protected from oxidation (aFGF; 3X heparin, 20 minutes)	heparin concentration down to which no detectable aggregation of aFGF was observed (acidic FGF (aFGF); 40° C., 100 μg/ml aFGF (1:10 weight ratio of heparin to aFGF))	Cu Oxidation (% SH Lost in 10 Mins) (aFGF; listed as inositol hexaphosphate)	number of ligand molecules per aFGF (molar ratio) required for stabilization (acidic FGF (aFGF); 40° C.)	IC50 (acidic FGF (aFGF); 40° C., 100 μg/ml aFGF, PBS pH 7.2, read-out: IC50: concentration of ligand at which the rate of heat-induced aggregation of aFGF is 50% of the sample without ligand (converted)) [µM]	stabilization of aFGF against heat-induced aggregation (acidic FGF (aFGF); 40° C.)	stabilization against copper-catalyzed oxidation (aFGF; 10-minute incubation, 1/3 weight level of heparin)	aggregation of aFGF (acidic FGF (aFGF); 55° C., 25 minutes, 3-fold excess heparin by weight)
O=P(O)(O)O[C@H]1[C@H](OP(=O)(O)O)[C@@H](OP(=O)(O)O)[C@H](OP(=O)(O)O)[C@@H](OP(=O)(O)O)[C@H]1OP(=O)(O)O [Inositol hexaphosphate, inositol hexaphosphate]	< 3					less than 3%					
O=S(=O)(O)OC1C(OS(=O)(=O)O)C(OS(=O)(=O)O)C(OS(=O)(=O)O)C(OS(=O)(=O)O)C1OS(=O)(=O)O (centres unmarked) [Inositol hexasulfate, inositol hexasulfate]	22	0.6					only one or a few ligands per aFGF molecule	4.54	stabilize aFGF against heat-induced aggregation		
low molecular weight heparin [Low MW heparin, reference compound]	< 3	0.10	3						dramatically stabilize aFGF from heat-induced aggregation		
sulfated β-cyclodextrin	< 3										
